Reference: US20100303793A1, “COMBINATION THERAPY FOR CARDIAC REVASCULARIZATION AND CARDIAC REPAIR” (The Board of Regents, The University of Texas Syst, priority 2007, published 2010)

What was measured:
[1] = system: Human coronary artery endothelial (HCAE) cells; test: Invasion of HCAE cells through Matrigel toward bFGF; assay type: cell-based; details: bFGF 10 ng/ml, 22 h
Method: (§1) The design of experiments to measure invasion and migration of endothelial cells toward the angiogenic factor bFGF (basic fibroblast growth factor) is shown in FIGS. 5A and 6A, respectively. The standard assay used 5×10^4 cells added to the top of the insert in 250 μl of medium. The lower portion of the apparatus contained 750 μl of medium, plus or minus bFGF. […] Transmembrane cell invasion and migration assays were performed using BD FluoroBlok (BD Bioscience, Bedford, Mass.) inserts coated with BD Matrigel Matrix (a biologically active basement membrane preparation) or with fibronectin, respectively. […] (R&D System, Minneapolis, Minn.) (FGF) or medium alone (CTR) were added to the lower chamber of the insert plate as a chemoattractant. The cells were allowed to invade or migrate for 22 hours. Cells were labeled post invasion or post migration with Calcein AM (4 μg/ml) and the fluorescence of the cells that invaded through the BD Matrigel Matrix or migrated to the underside of the insert membrane was measured using a plate reader at 485 nm (excitation) and 530 nm (emission).

[2] = system: Human coronary artery endothelial (HCAE) cells; test: Migration of HCAE cells through fibronectin-coated insert toward bFGF; assay type: cell-based; details: bFGF 10 ng/ml, 22 h
Method: as §1

23C53 = test: Binding of biotin-conjugated thrombin to complementary peptide 23C53
AC-23 = test: Binding of biotin-conjugated thrombin to complementary peptide AC-23
[3] = system: Human coronary artery endothelial (HCAE) cells; test: Migration of HCAE cells through fibronectin-coated insert toward PDGF; assay type: cell-based; details: PDGF 10 ng/ml, 22 h
Method: (§2) The design of experiments to measure invasion and migration of endothelial cells toward the angiogenic factor PDGF (platelet-derived growth factor-BB) is shown in FIGS. 7A and 8A respectively. The standard assay used 5×10^4 cells added to the top of the insert in […] of medium. The lower portion of the apparatus contained 750 μl of medium, plus or minus PDGF. […] Transmembrane cell invasion and migration assays were performed using BD FluoroBlok inserts coated with BD Matrigel Matrix (a biologically active basement membrane preparation) or with fibronectin (BD Bioscience, Bedford, Mass.), respectively. […] PDGF [10 ng/ml] (R&D System, Minneapolis, Minn. (PDGF) or medium alone (CTR) were added to the lower chamber of the insert plate as a chemoattractant. The cells were allowed to invade or migrate for 22 hours. Cells were labeled post invasion or post migration with Calcein AM (4 μg/ml) and the fluorescence of the cells that invaded through the BD Matrigel Matrix or migrated to the underside of the insert membrane was measured using a plate reader at 485 nm (excitation) and 530 nm (emission).

[4] = system: Human coronary artery endothelial (HCAE) cells; test: Invasion of HCAE cells through Matrigel toward PDGF; assay type: cell-based; details: PDGF 10 ng/ml, 22 h
Method: as §2

Sequence of AC-23 (as listed by the source): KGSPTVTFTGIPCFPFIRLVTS
Sequence of 23C53 (as listed by the source): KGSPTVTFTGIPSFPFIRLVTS

Molecule: bFGF: basic fibroblast growth factor, angiogenic factor (R&D System)
- bFGF-induced endothelial cell invasion, % of invasion with control medium (CTR) [1]: ~170%
- Increase of endothelial cell migration by bFGF compared to control medium not containing bFGF [2]: ~40%

Molecule: thrombin
- Specific binding of biotin-conjugated thrombin to 23C53 (23C53): bind specifically
- Specific binding of biotin-conjugated thrombin to AC23 (AC-23): bind specifically

B1: PDGF: platelet-derived growth factor-BB, angiogenic factor (R&D System) (protein, UniProt P01127 82-190, looked up)
Platelet-derived growth …: SLGSLTIAEPAMIAECKTRTEVFEISRRLIDRTNANFLVWPPCVEVQRCSGCCNNRNVQCRPTQVQLRPVQVRKIEIVRKKPIFKKATVTLEDHLACKCETVAAARPVT
- Effect of PDGF on endothelial cell migration compared to control (CTR) [3]: no effect
- Effect of PDGF on endothelial cell invasion compared to control medium without PDGF [4]: no effect
